We go through 13 compounds from patent US10611740B2, “Aryl dihydro-2H-benzo[b][1,4]oxazine sulfonamide and related compounds for use as agonists of RORγ and the treatment of disease” (Lycera Corporation, priority 2015, dated 2020).

The target in one test is T1, Gal4-RORγ-LBD (Homo sapiens, UniProt P51449).
T1 construct: expressed in transfected cells; host or cells: HEK-293 cells (pcDNA3.1neo plasmid)
T1 sequence (P51449 269-508 limits assumed): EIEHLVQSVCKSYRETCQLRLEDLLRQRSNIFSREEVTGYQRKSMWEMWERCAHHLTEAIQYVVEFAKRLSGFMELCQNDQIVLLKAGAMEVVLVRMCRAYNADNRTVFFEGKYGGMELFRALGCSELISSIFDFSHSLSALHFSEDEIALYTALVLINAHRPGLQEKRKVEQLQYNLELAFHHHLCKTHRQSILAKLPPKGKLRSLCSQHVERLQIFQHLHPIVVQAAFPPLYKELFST
Description: Gal4-RORγ Luciferase Reporter Assay in HEK-293T Cells. The test is classed as cell-based. The settings on record: HEK-293 cells. In outline:
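HEK-293 cells were transiently co-transfected with Gal4-RORγ-LBD and pGL4.31 Gal4-luciferase, with ursolic acid added at 2 μM final. Compounds were incubated overnight at 37° C. in 0.2% DMSO and luminescence read with One-Glo. Max Response is the upper plateau of a 4-parameter logistic fit, with signal lacking ursolic acid or compound set to 100.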
(In general: In a reporter assay the amount or activity of a reporter protein is the signal.)

A further test addresses T2, RORγ-LBD (Homo sapiens, UniProt P51449).
T2 construct: made in house; host or cells: SF9 cells (baculovirus)
T2 sequence (P51449 269-508 limits assumed): T1 sequence (P51449 269-508 limits assumed)
Description: RORγ-Ligand Binding Domain (LBD) TR-FRET Assay.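 On TR-FRET Assay Max Response: 665/615 nm ratio relative to signal without ursolic acid or compound set at 100.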 Format: biochemical. An outline of the steps: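 Compounds, diluted in DMSO and then in assay buffer (1% DMSO final), were combined with His-tagged RORγ-LBD lysate at roughly 3 nM final and a 200 nM biotinylated SRC1 LXXLL peptide. Ursolic acid was included at 2 μM final. Coactivator recruitment was detected by TR-FRET.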
On the technique in general: In TR-FRET formats the signal depends on donor and acceptor labels being close together.

Where [1] appears, read: luciferase reporter, with 2 μM ursolic acid.

As for `CC(C)c1cccc(S(=O)(=O)N2C[C@H](CNC(=O)C(C)(C)O)Oc3ccc(-c4cccc(N(C)C)n4)cc32)c1` [Compound 30J, (S)-N-((6-(6-(dimethylamino)-pyridin-2-yl)-4-((3-isopropylphenyl)sulfonyl)-3,4-dihydro-2H-benzo[b][1,4]oxazin-2-yl)methyl)-2-hydroxy-2-methylpropanamide], on Gal4-RORγ-LBD (setting [1]), the EC50 (commonly the concentration at which the effect is half-maximal) was less than 500 nM and the “Gal4-RORγ Assay Max Response” value was “* (The symbol “*” indicates a value in the range of 25 to 90)”. On RORγ-LBD, the 50% effective concentration (EC50) is less than 500 nM and the “TR-FRET Assay Max Response” value is recorded as “**** (The symbol “****” indicates a value greater than 200)”.
On to `O=C(O)[C@@H]1C[C@H]1[C@H]1CN(S(=O)(=O)c2cccc(C(F)(F)F)c2)c2cc(-c3cc(F)cc(OC(F)F)c3)ccc2O1` [Compound 55, (1R,2R)-2-((S)-6-(3-(difluoromethoxy)-5-fluorophenyl)-4-((3-(trifluoromethyl)phenyl)sulfonyl)-3,4-dihydro-2H-benzo[b][1,4]oxazin-2-yl)cyclopropane-1-carboxylic acid], for which, at Gal4-RORγ-LBD (2 μM ursolic acid), the EC50 was less than 500 nM and the “Gal4-RORγ Assay Max Response” value was “* (The symbol “*” indicates a value in the range of 25 to 90)”. Also, at RORγ-LBD, the EC50 was less than 500 nM and the “TR-FRET Assay Max Response” value is given as “** (The symbol “**” indicates a value in the range of greater than 90 to 150)”.
For `O=C(O)C1(C[C@H]2CN(S(=O)(=O)c3cccc(C(F)(F)F)c3)c3cc(-c4cccc(Cl)c4F)ccc3O2)CCC1` [Compound 32BF, (S)-1-((6-(3-chloro-2-fluoro-phenyl)-4-((3-(trifluoromethyl)-phenyl)sulfonyl)-3,4-dihydro-2H-benzo[b][1,4]oxazin-2-yl)-methyl)cyclobutane-1-carboxylic acid], at Gal4-RORγ-LBD (2 μM ursolic acid), the EC50 was less than 500 nM and the “Gal4-RORγ Assay Max Response” value is recorded as “** (The symbol “**” indicates a value in the range of greater than 90 to 150)”. Also, on RORγ-LBD, the EC50 was less than 500 nM and the “TR-FRET Assay Max Response” value was “*** (The symbol “***” indicates a value in the range of greater than 150 to 200)”.
Regarding `O=C(CC[C@H]1CN(S(=O)(=O)c2cccc(C(F)(F)F)c2)c2cc(-c3ccc(F)cc3F)ccc2O1)NS(=O)(=O)C1CC1` [Compound 43B, (S)-N-(cyclopropylsulfonyl)-3-(6-(2,4-difluorophenyl)-4-((3-(trifluoromethyl)phenyl)-sulfonyl)-3,4-dihydro-2H-benzo[b][1,4]oxazin-2-yl)propanamide], at Gal4-RORγ-LBD (setting [1]), the EC50 lay in the range of 500 to 5000 nM and the “Gal4-RORγ Assay Max Response” value is “** (The symbol “**” indicates a value in the range of greater than 90 to 150)”. In addition, at RORγ-LBD, the EC50 is less than 500 nM and the “TR-FRET Assay Max Response” value is on record as “**** (The symbol “****” indicates a value greater than 200)”.
With `COc1ccc(F)c(-c2ccc3c(c2)N(S(=O)(=O)c2cccc(C(F)(F)F)c2)C[C@H](CC(C)(C)C(=O)O)O3)c1F` [Compound 32BK, (S)-3-(6-(2,6-difluoro-3-methoxyphenyl)-4-((3-(trifluoromethyl)phenyl)sulfonyl)-3,4-dihydro-2H-benzo[b][1,4]oxazin-2-yl)-2,2-dimethylpropanoic acid], at Gal4-RORγ-LBD (2 μM ursolic acid), the EC50 was less than 500 nM and the “Gal4-RORγ Assay Max Response” value is listed as “** (The symbol “**” indicates a value in the range of greater than 90 to 150)”. Also, on RORγ-LBD, the concentration giving a half-maximal response (EC50) is less than 500 nM and the “TR-FRET Assay Max Response” value is listed as “*** (The symbol “***” indicates a value in the range of greater than 150 to 200)”.
With `CC(C)(C[C@H]1CN(S(=O)(=O)c2cccc(C(F)(F)F)c2)c2cc(-c3cccc(F)c3Cl)ccc2O1)C(=O)O` [Compound 32H, (S)-3-(6-(2-chloro-3-fluorophenyl)-4-((3-(trifluoromethyl)phenyl)sulfonyl)-3,4-dihydro-2H-benzo[b][1,4]oxazin-2-yl)-2,2-dimethylpropanoic acid], on Gal4-RORγ-LBD (setting [1]), the EC50 lay within 500 to 5000 nM and the “Gal4-RORγ Assay Max Response” value is “** (The symbol “**” indicates a value in the range of greater than 90 to 150)”. Also, at RORγ-LBD, the half-maximal effective concentration (EC50) is less than 500 nM and the “TR-FRET Assay Max Response” value is “**** (The symbol “****” indicates a value greater than 200)”.
As to `O=C(O)[C@]1(C[C@H]2CN(S(=O)(=O)c3cccc(C(F)(F)F)c3)c3cc(-c4cc(F)ccc4F)ccc3O2)CCNC1=O` [Compound 77A, (S)-3-(((S)-6-(2,5-difluorophenyl)-4-((3-(trifluoromethyl)phenyl)-sulfonyl)-3,4-dihydro-2H-benzo[b][1,4]oxazin-2-yl)methyl) 2-oxopyrrolidine-3-carboxylic acid], on Gal4-RORγ-LBD (2 μM ursolic acid), the “Gal4-RORγ Assay Max Response” value is recorded as “**** (The symbol “****” indicates a value greater than 200)”. Besides, at RORγ-LBD, the EC50 was less than 500 nM and the “TR-FRET Assay Max Response” value is recorded as “** (The symbol “**” indicates a value in the range of greater than 90 to 150)”.
For the compound `O=C(O)C1(C[C@H]2CN(S(=O)(=O)c3cccc(C(F)(F)F)c3)c3cc(-c4cc(F)cc(Cl)c4)ccc3O2)CCOCC1` [Compound 78E, (S)-4-((6-(3-chloro-5-fluoro-phenyl)-4-((3-(trifluoromethyl)-phenyl)sulfonyl)-3,4-dihydro-2H-benzo[b][1,4]oxazin-2-yl)methyl)tetrahydro-2H-pyran-4-carboxylic acid], on Gal4-RORγ-LBD (2 μM ursolic acid), the EC50 is less than 500 nM and the “Gal4-RORγ Assay Max Response” value was “** (The symbol “**” indicates a value in the range of greater than 90 to 150)”. In addition, at RORγ-LBD, the EC50 is less than 500 nM and the “TR-FRET Assay Max Response” value is reported as “** (The symbol “**” indicates a value in the range of greater than 90 to 150)”.
As to `COc1cc(S(=O)(=O)N2C[C@H](CCC(=O)O)Oc3ccc(-c4cc(F)cc(F)c4Cl)cc32)ccc1F` [Compound 6K, (S)-3-(6-(2-chloro-3,5-difluorophenyl)-4-((4-fluoro-3-methoxyphenyl)sulfonyl)-3,4-dihydro-2H-benzo[b][1,4]oxazin-2-yl)propanoic acid], on Gal4-RORγ-LBD (setting [1]), the EC50 is less than 500 nM and the “Gal4-RORγ Assay Max Response” value is “** (The symbol “**” indicates a value in the range of greater than 90 to 150)”. On RORγ-LBD, the EC50 was less than 500 nM and the “TR-FRET Assay Max Response” value was “*** (The symbol “***” indicates a value in the range of greater than 150 to 200)”.
For `O=C(O)CC[C@H]1CN(S(=O)(=O)c2cccc(C(F)(F)F)c2)c2cc(-c3cccc(C(F)(F)F)c3)ccc2O1` [Compound 2G, (S)-3-(6-(3-(trifluoromethyl)phenyl)-4-((3-(trifluoromethyl)phenyl)-sulfonyl)-3,4-dihydro-2H-benzo[b][1,4]oxazin-2-yl)propanoic acid], at Gal4-RORγ-LBD (setting [1]), the EC50 was less than 500 nM and the “Gal4-RORγ Assay Max Response” value is reported as “*** (The symbol “***” indicates a value in the range of greater than 150 to 200)”. At RORγ-LBD, the EC50 was less than 500 nM and the “TR-FRET Assay Max Response” value is “*** (The symbol “***” indicates a value in the range of greater than 150 to 200)”.
On to `CC(C)(C[C@H]1CN(S(=O)(=O)c2cccc(C(F)(F)F)c2)c2cc(-c3c(F)ccc(F)c3F)ccc2O1)C(=O)O` [Compound 32BM, (S)-2,2-dimethyl-3-(4-((3-(trifluoromethyl)phenyl)sulfonyl)-6-(2,3,6-trifluorophenyl)-3,4-dihydro-2H-benzo[b][1,4]oxazin-2-yl)propanoic acid], for which, on Gal4-RORγ-LBD (2 μM ursolic acid), the EC50 was less than 500 nM and the “Gal4-RORγ Assay Max Response” value is “** (The symbol “**” indicates a value in the range of greater than 90 to 150)”. Besides, at RORγ-LBD, the EC50 is less than 500 nM and the “TR-FRET Assay Max Response” value is reported as “*** (The symbol “***” indicates a value in the range of greater than 150 to 200)”.
Take `CCOc1cccc(-c2ccc3c(c2)N(S(=O)(=O)c2cccc(C(F)(F)F)c2)C[C@H](CCC(=O)O)O3)c1` [Compound 2AS, (S)-3-(6-(3-ethoxyphenyl)-4-((3-(trifluoromethyl)phenyl)-sulfonyl)-3,4-dihydro-2H-benzo[b][1,4]-oxazin-2-yl)propanoic acid]: at Gal4-RORγ-LBD (setting [1]), the EC50 was 500 to 5000 nM and the “Gal4-RORγ Assay Max Response” value is given as “** (The symbol “**” indicates a value in the range of greater than 90 to 150)”. Moreover, on RORγ-LBD, the EC50 is less than 500 nM and the “TR-FRET Assay Max Response” value was “**** (The symbol “****” indicates a value greater than 200)”.
Turning to `O=C(O)C1CC(=O)N(C[C@H]2CN(S(=O)(=O)c3cccc(C(F)(F)F)c3)c3cc(-c4cc(F)ccc4F)ccc3O2)C1` (stereo partly drawn) [Compound 18, 1-(((S)-6-(2,5-difluorophenyl)-4-((3-(trifluoromethyl)phenyl)sulfonyl)-3,4-dihydro-2H-benzo[b][1,4]oxazin-2-yl)methyl)-5-oxopyrrolidine-3-carboxylic acid], at Gal4-RORγ-LBD (2 μM ursolic acid), the EC50 lay within 500 to 5000 nM and the “Gal4-RORγ Assay Max Response” value was “** (The symbol “**” indicates a value in the range of greater than 90 to 150)”. At RORγ-LBD, the EC50 is less than 500 nM and the “TR-FRET Assay Max Response” value was “**** (The symbol “****” indicates a value greater than 200)”.
